The text below walks through data of patent US8202865B2, “Oxadiazole derivatives” (Merck Serono SA, priority 2007, dated 2012).

Structures are written as SMILES.

T1 sequence (P21453 whole entry, species assumed): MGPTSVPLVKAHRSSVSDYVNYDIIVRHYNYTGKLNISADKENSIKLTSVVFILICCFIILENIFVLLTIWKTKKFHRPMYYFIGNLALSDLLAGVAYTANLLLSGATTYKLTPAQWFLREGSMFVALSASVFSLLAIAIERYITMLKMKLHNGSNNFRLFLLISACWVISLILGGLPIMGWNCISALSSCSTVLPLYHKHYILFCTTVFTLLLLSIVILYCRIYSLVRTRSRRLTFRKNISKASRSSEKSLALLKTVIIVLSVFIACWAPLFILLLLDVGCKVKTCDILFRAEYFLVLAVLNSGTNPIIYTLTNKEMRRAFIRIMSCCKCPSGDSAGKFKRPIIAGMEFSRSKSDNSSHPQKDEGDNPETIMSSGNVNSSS

This assay addresses T1, S1P1 (Homo sapiens, UniProt P21453).
T1 construct: expressed in transfected cells; host or cells: CHO cells (membranes)
As to the kind of experiment: 35S-GTPγS binding, S1P1 membranes. Particulars: membranes from CHO cells expressing S1P1; 60 min 30° C. The assay is classed as biochemical. On the procedure: Receptor binding assay: Membranes were prepared from CHO cells expressing S1P1 or S1P3 for use in ligand and […] binding studies. Cells were suspended in 50 mM TRIS, pH 7.4, 2 mM EDTA, 250 mM Sucrose (buffer A) and 1× Complete protease inhibitor cocktail (Roche), and disrupted at 4° C. by N2 decompression using a cell disruption bomb (Parr Instrument). Following centrifugation at 1000 RPM for 10 min at 4° C., the supernatant was suspended in buffer A and centrifuged again at 19000 RPM for 60 min at 4° C. The pellet was then suspended in 10 mM HEPES, pH 7.4, 1 mM EDTA, 250 mM Sucrose (Buffer B), and 1× Complete EDTA-free protease inhibitor cocktail and homogenized using a potter. Membranes were flash frozen in liquid N2 and stored at −80° C. [33P]sphingosine 1-phosphate (3000 Ci/mmol; American Radiolabeled Chemicals, Inc.) was added to test compounds in DMSO. Membranes and WGA SPA beads (GE Healthcare) were added to give a final volume of 100 μl in 96-well plates with assay concentrations of 25 pM or 10 pM [33P]sphingosine 1-phosphate (respectively for S1P1 or S1P3), 50 mM HEPES, pH 7.5, 5 mM MgCl2, 100 mM NaCl, 0.4% fatty acid-free BSA, 1-5 μg/well of proteins and 100 μg/well of WGA SPA beads. Binding was performed for 60 min at RT on a shaker and bound radioactivity was measured on a PerkinElmer 1450 MicroBeta counter. Specific binding was calculated by subtracting remaining radioactivity in the presence of 1000-fold excess of unlabeled S1P. Binding data were analyzed using the GraphPad Prism program.
Measurements of ^35S-GTPγS Binding: Membranes (1 to 10 μg protein) prepared as described above, were incubated in 96-well Scintiplates (PerkinElmer) with test compounds diluted in DMSO, in 180 μl of 20 mM HEPES, pH 7.4, 10 mM MgCl2, 2 μg/well Saponin, 0.2% fatty acid free BSA (Assay buffer), 140 mM NaCl and 1.7 μM GDP. The assay was initiated with the addition of 20 μl of 1.5 nM [35S]-GTPγS (1100 Ci/mmol; GE Healthcare) in assay buffer. After 60 min incubation at 30° C. on a shaker, plates were centrifuged for 10 min at 2000 RPM. Supernatant was discarded and membrane bound radioactivity was measured on a PerkinElmer 1450 MicroBeta counter. Triplicate samples were averaged and expressed as % response relative to S1P activation in absence of compound (n=2).
(GTPγS resists hydrolysis and so accumulates on activated G proteins.)
As a reminder, the EC50 is the concentration needed to bring the measured effect to its halfway point. Low values mean a more potent agent, high ones a less potent agent. `COCc1cc(-c2nc(-c3cc(Cl)c(C(=O)O)cc3F)no2)ccc1-c1ccccc1C` [Example 109, 2-chloro-5-fluoro-4-{5-[2-(methoxymethyl)-2′-methylbiphenyl-4-yl]-1,2,4-oxadiazol-3-yl}benzoic acid] showed an EC50 of 90 nM.
Under `COCc1cc(-c2nc(-c3ccc(C(=O)OC)c(F)c3)no2)ccc1OC(C)C` [Example 110, methyl 2-fluoro-4-{5-[4-isopropoxy-3-(methoxymethyl)phenyl]-1,2,4-oxadiazol-3-yl}benzoate] stands 240 nM; under `COCc1cc(-c2nc(-c3ccc(C(=O)O)c(F)c3)no2)ccc1OC(C)C` [Example 111, 2-fluoro-4-{5-[4-isopropoxy-3-(methoxymethyl)phenyl]-1,2,4-oxadiazol-3-yl}benzoic acid], 610 nM.
As for `COCc1cc(-c2nc(-c3cc(F)c(C(=O)O)cc3OC)no2)ccc1-c1ccccc1C` [Example 112, 2-fluoro-5-methoxy-4-{5-[2-(methoxymethyl)-2′-methylbiphenyl-4-yl]-1,2,4-oxadiazol-3-yl}benzoic acid], it took 102 nM to reach a half-maximal effect (EC50).
Under `COCc1cc(-c2nc(-c3ccc(C(=O)OC)c(F)c3)no2)ccc1N1CCCCC1C` (stereo not drawn) [Example 113, methyl 2-fluoro-4-{5-[3-(methoxymethyl)-4-(2-methylpiperidin-1-yl)phenyl]-1,2,4-oxadiazol-3-yl}benzoate] stands 485 nM; under `COCc1cc(-c2nc(-c3cc(Cl)c(C(=O)O)cc3OC)no2)ccc1-c1ccccc1C` [Example 115, 2-chloro-5-methoxy-4-{5-[2-(methoxymethyl)-2′-methylbiphenyl-4-yl]-1,2,4-oxadiazol-3-yl}benzoic acid], 246 nM; under `COCc1cc(-c2nc(-c3ccc(C(=O)N(C)CC(=O)OC)c(F)c3)no2)ccc1-c1ccccc1C` [Example 116, methyl N-(2-fluoro-4-{5-[2-(methoxymethyl)-2′-methylbiphenyl-4-yl]-1,2,4-oxadiazol-3-yl}benzoyl)-N-methylglycinate], 240 nM.
Under `COCc1cc(-c2nc(-c3ccc(C(=O)NCCC(=O)OC)c(F)c3)no2)ccc1-c1ccccc1C` [Example 117, Methyl N-(2-fluoro-4-{5-[2-(methoxymethyl)-2′-methylbiphenyl-4-yl]-1,2,4-oxadiazol-3-yl}benzoyl)-beta-alaninate] stands 9 nM; under `COCc1cc(-c2nc(-c3ccc(C(=O)NC4(C(=O)O)CC4)c(F)c3)no2)ccc1-c1ccccc1C` [Example 120, 1-[(2-fluoro-4-{5-[2-(methoxymethyl)-2′-methylbiphenyl-4-yl]-1,2,4-oxadiazol-3-yl}benzoyl)amino]cyclopropanecarboxylic acid], 58 nM; under `CCOC(=O)CC(C)NC(=O)c1ccc(-c2noc(-c3ccc(-c4ccccc4C)c(COC)c3)n2)cc1F` (stereo not drawn) [Example 121, Ethyl 3-[(2-fluoro-4-{5-[2-(methoxymethyl)-2′-methylbiphenyl-4-yl]-1,2,4-oxadiazol-3-yl}benzoyl)amino]butanoate], 281 nM.
In the case of `COCc1cc(-c2nc(-c3ccc(C(=O)N(C)CC(=O)O)c(F)c3)no2)ccc1-c1ccccc1C` [Example 125, N-(2-fluoro-4-{5-[2-(methoxymethyl)-2′-methylbiphenyl-4-yl]-1,2,4-oxadiazol-3-yl}benzoyl)-N-methylglycine], a half-maximal response (EC50) required 86 nM.
Under `COCc1cc(-c2nc(-c3ccc(C(=O)NCCCC(=O)OC)c(F)c3)no2)ccc1-c1ccccc1C` [Example 126, Methyl 4-[(2-fluoro-4-{5-[2-(methoxymethyl)-2′-methylbiphenyl-4-yl]-1,2,4-oxadiazol-3-yl}benzoyl)amino]butanoate] stands 35 nM.
Under `COCc1cc(-c2nc(-c3ccc(C(=O)NC(C)(C)C(=O)OC)c(F)c3)no2)ccc1-c1ccccc1C` [Example 128, Methyl N-(2-fluoro-4-{5-[2-(methoxymethyl)-2′-methylbiphenyl-4-yl]-1,2,4-oxadiazol-3-yl}benzoyl)-2-methylalaninate] stands 154 nM; under `COCc1cc(-c2nc(-c3ccc(C(=O)NC(C)(C)C(=O)O)c(F)c3)no2)ccc1-c1ccccc1C` [Example 129, N-(2-fluoro-4-{5-[2-(methoxymethyl)-2′-methylbiphenyl-4-yl]-1,2,4-oxadiazol-3-yl}benzoyl)-2-methylalanine], 40 nM; under `COCc1cc(-c2nc(-c3cccc(C(=O)NCC(=O)OC)c3)no2)ccc1-c1ccccc1C` [Example 130, Methyl N-(3-{5-[2-(methoxymethyl)-2′-methylbiphenyl-4-yl]-1,2,4-oxadiazol-3-yl}benzoyl)glycinate], 8.6 nM.
Consider `CCOC(=O)C1(NC(=O)c2cccc(-c3noc(-c4ccc(-c5ccccc5C)c(COC)c4)n3)c2)CC1` [Example 131, Ethyl 1-[(3-{5-[2-(methoxymethyl)-2′-methylbiphenyl-4-yl]-1,2,4-oxadiazol-3-yl}benzoyl)amino]cyclopropanecarboxylate], for which a half-maximal effect (EC50) was put at 35 nM.
Under `COCc1cc(-c2nc(-c3cccc(C(=O)NCCC(=O)OC)c3)no2)ccc1-c1ccccc1C` [Example 132, Methyl N-(3-{5-[2-(methoxymethyl)-2′-methylbiphenyl-4-yl]-1,2,4-oxadiazol-3-yl}benzoyl)-beta-alaninate] stands 2.9 nM.
The same measure for `COCc1cc(-c2nc(-c3cccc(C(=O)NC4(C(=O)O)CC4)c3)no2)ccc1-c1ccccc1C` [Example 133, 1-[(3-{5-[2-(methoxymethyl)-2′-methylbiphenyl-4-yl]-1,2,4-oxadiazol-3-yl}benzoyl)amino]cyclopropanecarboxylic acid]: 21.6 nM; for `COCc1cc(-c2nc(-c3cccc(C(=O)NCC(=O)O)c3)no2)ccc1-c1ccccc1C` [Example 134, N-(3-{5-[2-(methoxymethyl)-2′-methylbiphenyl-4-yl]-1,2,4-oxadiazol-3-yl}benzoyl)glycine]: 5.1 nM; for `COCc1cc(-c2nc(-c3cccc(C(=O)NCCC(=O)O)c3)no2)ccc1-c1ccccc1C` [Example 135, N-(3-{5-[2-(methoxymethyl)-2′-methylbiphenyl-4-yl]-1,2,4-oxadiazol-3-yl}benzoyl)-beta-alanine]: 7.8 nM.
The same measure for `COCc1cc(-c2nc(-c3cccc(C(=O)N(C)CC(=O)OC)c3)no2)ccc1-c1ccccc1C` [Example 136, Methyl N-(3-{5-[2-(methoxymethyl)-2′-methylbiphenyl-4-yl]-1,2,4-oxadiazol-3-yl}benzoyl)-N-methylglycinate]: 46 nM; for `COCc1cc(-c2nc(-c3cccc(C(=O)NCCCC(=O)OC)c3)no2)ccc1-c1ccccc1C` [Example 137, Methyl 4-[(3-{5-[2-(methoxymethyl)-2′-methylbiphenyl-4-yl]-1,2,4-oxadiazol-3-yl}benzoyl)amino]butanoate]: 25 nM; for `COCc1cc(-c2nc(-c3cccc(C(=O)N(C)CC(=O)O)c3)no2)ccc1-c1ccccc1C` [Example 138, N-(3-{5-[2-(methoxymethyl)-2′-methylbiphenyl-4-yl]-1,2,4-oxadiazol-3-yl}benzoyl)-N-methylglycine]: 48.6 nM.
Consider `COCc1cc(-c2nc(-c3cccc(C(=O)NCCCC(=O)O)c3)no2)ccc1-c1ccccc1C` [Example 139, 4-[(3-{5-[2-(methoxymethyl)-2′-methylbiphenyl-4-yl]-1,2,4-oxadiazol-3-yl}benzoyl)amino]butanoic acid], for which the EC50 turned out to be 9.6 nM.
Under `CCOC(=O)C1(NCc2cccc(-c3noc(-c4ccc(-c5ccccc5C)c(COC)c4)n3)c2)CC1` [Example 140, Ethyl 1-[(3-{5-[2-(methoxymethyl)-2′-methylbiphenyl-4-yl]-1,2,4-oxadiazol-3-yl}benzyl)amino]cyclopropanecarboxylate] stands 142 nM; under `COCc1cc(-c2nc(-c3cccc(CNCCC(=O)OC)c3)no2)ccc1-c1ccccc1C` [Example 145, Methyl N-(3-{5-[2-(methoxymethyl)-2′-methylbiphenyl-4-yl]-1,2,4-oxadiazol-3-yl}benzyl)-beta-alaninate], 2.3 nM; under `COCc1cc(-c2nc(-c3cccc(CN(CC(=O)OC(C)(C)C)C(=O)OC(C)(C)C)c3)no2)ccc1-c1ccccc1C` [Example 149, Tert-butyl N-(tert-butoxycarbonyl)-N-(3-{5-[2-(methoxymethyl)-2′-methylbiphenyl-4-yl]-1,2,4-oxadiazol-3-yl}benzyl)glycinate], 1240 nM.
